Patent US7582652B2, “Kinase inhibitors” (Eli Lilly and Company, priority 2004, dated 2009)
pIC50: −log10 of the molar value.

What was measured:
p38 kinase enzyme = p38 kinase enzyme (Homo sapiens, UniProt Q16539); assay: Inhibition of p38 kinase; assay type: biochemical; conditions: 33P-ATP, EGF peptide 661-681, 30° C.
Experimental: Standard Solution Preparations
The kinase buffer solution is prepared by combining 2.5 mL 1 M Tris-HCl (pH 7.5), 0.1 ml 1 M dithiothreitol, 1.0 mL 1 M magnesium chloride, and 300 μL 1% Triton X-100 and diluting to 100 mL with water. 84 mL of this kinase buffer solution is combined with 16 mL DMSO to prepare the 16% DMSO solution.
The 200 μM ATP solution is prepared by adding 102.6 μL 10 mM aqueous ATP, 25 μL ^33P-ATP, and 163.5 μL of 4 mM aqueous Epidermal Growth Factor Peptide 661-681 (Biomol, Catalog #P-121) in 5 mL kinase buffer solution.
The p38 kinase enzyme solution is prepared by dissolving 9.5 μL concentrated enzyme solution (250 ng p38 enzyme/μL kinase buffer solution) in 1536 μL kinase buffer solution.
An 80 μM solution of each test compound and control compound are prepared by dissolving 2 μL of a 10 mM stock solution of the respective compounds in dimethylsulfoxide in 248 μL of the 16% DMSO solution in a Costar 96-well microtiter plate. The plate is placed onto the Tecan Genesis automated liquid handler for 1:3 serial dilutions.
10 μL of serially diluted compound is placed with a Beckmnan Multimek 96-well automated liquid handler to the assay plate. […] of 200 μM ATP solution is added with a Titertek Multidrop 8-channel liquid handler. 10 μL of p38 kinase enzyme solution is transferred to the assay plate using the Multimek. The mixture is allowed to react for […] and then the reaction is stopped by adding 60 μL of freshly prepared 5% glacial AcOH with Multidrop. 80 μL of this solution is transferred to an “MAPH” plate using the Multimek. The plates are allowed to set for 30 min at RT and then washed/aspirated on the Titertek MAP extractor with freshly prepared 0.5% glacial AcOH (1×300 μL, 2×200 μL). The wells are blotted and 100 μL MicroScint-20 scintillation fluid (Packard Bioscience) is added with the Multidrop. The plates are allowed to sit for 30 min and counted on a PE/Wallac Microbeta Trilux scintillation counter for ^33P-isotope.
All exemplified compounds were initially tested at 10 concentrations (20 μM−1 nM using 1:3 serial dilutions). […] IC50 values were calculated (IDBS ActivityBase software) for each compound using non-linear regression.

[1] = tested on: TNF-α production in mouse peritoneal macrophages; assay: Inhibition of TNF-α in vitro (mouse peritoneal macrophages, LPS/interferon-γ, Luminex); assay type: cell-based; conditions: Mus musculus, Peritoneal macrophage; suppression of TNF-α; macrophages treated with 50 ng/mL LPS and 10 U/mL interferon-γ for 18 h
Experimental: Mouse Peritoneal Macrophages
1 mL thioglycolate broth (5.0 g yeast extract, 15.0 g casitone or trypticase, 5.0 g dextrose, 2.5 g sodium chloride, 0.75 g L-cystine, 0.5 g sodium thioglycolate, 1.0 mg resazurin, and 0.75 g agar in 1.0 L distilled water) is injected into the peritoneal cavity of Balb/C female mice. At day 4 or 5 post-injection the mice are sacrificed and then injected i.p. with 4 mL RPMI-1640 medium (BioWhittaker) and the peritoneal macrophages are withdrawn by syringe.
Mouse peritoneal microphages are counted with a hemocytometer and adjusted to 5×10^5 cells/well in 96-well plates in RPMI-1640 medium with 10% fetal bovine serum. 200 μL/well is plated in 96-well plates and the cells allowed to settle and adhere to the bottom of the well for at least 3 h. The test compound or standard p38 kinase inhibitor is pre-treated using a series of 8 concentrations for 1 h at 37° C. (20 μL/well). The cells are treated with a mixture of 50 ng/mL lipopolysaccharide (LPS) and 10 U/mL interferon-γ for 18 h at 37° C. (20 μL/well). The conditioned media is harvested and assayed for TNF-α production using the Luminex procedure.
TNF-α/Luminex Detection Assay (Bio-Rad Bio-Plex Kit—Catalog #171-G12221)
The lyophilized premixed TNF-α standard (1 standard tube/two 96-well plates) is reconstituted with 50 μL sterile water (500,000 pg/mL). The samples are vortexed for 5 seconds, incubated on ice for 30 min, and vortexed for 5 seconds before use. A set of twelve 1.5 mL tubes are labeled with #1-thru #12 and then the amounts of cell media shown below added to the appropriate tubes (standard concentrations are as follows: 50,000; 25,000; 12,500; 6,250; 3,125; 1,562.5; 781.3; 390.6; 195.3; 97.7; 48.8; and 24.4 pg/mL). The premixed anti-cytokine conjugated beads are vortexed (25×) vigorously for 30 seconds. The anti-cytokine conjugated beads are diluted to a 1× concentration using 1× Bio-Plex Assay Buffer. For every plate, 240 μL of the pre-mixed beads is added to 5760 μL of Bio-Plex Assay Buffer. A Millipore 96-well filter plate is blocked with 100 μL/well of blocking buffer. The blocking buffer is filtered through using a Millipore filtration system and then toweled dry. 2 washes are performed on the filter plate with 100 μL/well of Bio-Plex Assay Buffer and toweled dry. The 1× anti-cytokine conjugated beads are vortexed for 15 seconds and added 50 μL to each well. This is filtered through and toweled dry. 2 washes are performed on plates with 100 μl/well of Bio-Plex Wash Buffer. Again, it is filtered through and toweled dry. 50 μL of sample or standard is added to each sample well. This is incubated for 60 seconds at RT on a shaker protected from light at setting 6 and then for 30 min at setting 3 and then placed in the refrigerator overnight. 3 washes are performed with Bio-Plex Wash Buffer. Filter through and toweled dry. The cytokine detection antibody is prepared (˜10 min prior to use) for every plate and 60 μL of the premixed cytokine detection antibody stock is added to 5940 μL of Bio-Plex Detection Antibody Diluent. 50 μL of cytokine detection antibody is added and incubated for 60 seconds at RT on a shaker protected from light at setting 6 and then for 30 min at setting 3.3 washes are performed with the Bio-Plex Wash Buffer. This is filtered through and toweled dry. Strept-PE (˜10 minutes prior to use) is prepared for every plate and 60 μL to 5940 μL of Bio-Plex Assay Buffer added. 50 μL of Streptavidin-PE is added to each well and incubated for 60 seconds at RT on a shaker protected from light at setting 6 and then for 10 min at setting 3. 3 washes are performed with Bio-Plex Wash-Buffer. This is filtered through. The beads are re-suspended in 100 μL/well of Bio-Plex Assay Buffer. Standards and samples are read on a Luminex machine. […]

Chain of p38 kinase enzyme (Q16539 whole entry): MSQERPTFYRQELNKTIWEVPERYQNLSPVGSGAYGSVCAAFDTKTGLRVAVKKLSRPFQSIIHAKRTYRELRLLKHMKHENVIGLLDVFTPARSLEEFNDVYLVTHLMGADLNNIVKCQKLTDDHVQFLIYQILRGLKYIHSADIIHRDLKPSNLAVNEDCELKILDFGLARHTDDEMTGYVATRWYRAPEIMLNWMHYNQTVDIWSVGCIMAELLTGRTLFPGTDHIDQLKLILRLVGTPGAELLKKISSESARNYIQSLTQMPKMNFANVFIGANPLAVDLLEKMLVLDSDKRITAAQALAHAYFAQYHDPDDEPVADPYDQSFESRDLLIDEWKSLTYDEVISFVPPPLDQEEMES

| Structure (SMILES) | pIC50 (p38 kinase enzyme) | pIC50 [1] |
| --- | --- | --- |
| CC(C)(C)Cn1c(N)nc2ccc(-c3[nH]c(C(C)(C)C)nc3-c3ccc(F)cc3)nc21 [EXAMPLE 9, 5-[2-tert-Butyl-5-(4-fluorophenyl)-3H-imidazol-4-yl]-3-(2,2-dimethylpropyl)-3H-imidazo[4,5-b]pyridin-2-ylamine methanesulfonate] | – | 8.92 |
| C[C@@H](n1c(N)nc2ccc(-c3[nH]c(C(C)(C)C)nc3-c3ccc(F)cc3)nc21)C(C)(C)C [compound 12, R-5-[2-tert-Butyl-5-(4-fluorophenyl)-3H-imidazol-4-yl]-3-(1,2,2-trimethylpropyl)-3H-imidazo[4,5-b]pyridin-2-ylamine methanesulfonate] | 8.44 | – |
| CC(C)(C)Cn1c(N)nc2ccc(-c3[nH]c(C(C)(C)C)nc3-c3ccc(F)cc3F)nc21 [EXAMPLE 11, 5-[2-tert-Butyl-5-(2,4-difluorophenyl)-3H-imidazol-4-yl]-3-(2,2-dimethylpropyl)-3H-imidazo[4,5-b]pyridin-2-ylamine methanesulfonate] | – | 8.62 |
| C[C@@H](n1c(N)nc2ccc(-c3[nH]c(-c4c(F)cccc4F)nc3-c3ccc(F)cc3)nc21)C(C)(C)C [compound 13, R-5-[2-(2,6-Difluorophenyl)-5-(4-fluorophenyl)-3H-imidazol-4-yl]-3-(1,2,2-trimethylpropyl)-3H-imidazo[4,5-b]pyridin-2-ylamine methanesulfonate] | 8.48 | > 8.04 |

The next lines start with the values.

| pIC50 (p38 kinase enzyme) | pIC50 [1] | Structure (SMILES) |
| --- | --- | --- |
| 8.49 | > 8.04 | Nc1nc2ccc(-c3[nH]c(-c4c(F)cccc4F)nc3-c3ccccc3)nc2n1CC1CC1 [compound 19, 3-Cyclopropylmethyl-5-[2-(2,6-difluorophenyl)-5-phenyl-3H-imidazol-4-yl]-3H-imidazo[4,5-b]pyridin-2-ylamine methanesulfonate] |
| 8.44 | > 8.04 | CC(C)(C)Cn1c(N)nc2ccc(-c3[nH]c(-c4c(F)cccc4Cl)nc3-c3ccccc3)nc21 [compound 18, 5-[2-(2-Chloro-6-fluorophenyl)-5-phenyl-3H-imidazol-4-yl]-3-(2,2-dimethylpropyl)-3H-imidazo[4,5-b]pyridin-2-ylamine methanesulfonate] |
| 8.14 | > 8.04 | CC(C)(C)Cn1c(N)nc2ccc(-c3[nH]c(-c4c(F)cccc4C(F)(F)F)nc3-c3ccccc3)nc21 [EXAMPLE 6, 3-(2,2-Dimethylpropyl)-5-[2-(2-fluoro-6-trifluoromethylphenyl)-5-phenyl-3H-imidazol-4-yl]-3H-imidazo[4,5-b]pyridin-2-ylamine methanesulfonate] |
